In ChEMBL document CHEMBL5380857, “Discovery of Potent, Selective, and Orally Bioavailable Small-Molecule Inhibitors of CDK8 for the Treatment of Cancer” (J Med Chem, 2023):
pEC50, pIC50, pKd: −log10 of the molar value.

Legend:
[1] = target: Dual specificity tyrosine-phosphorylation-regulated kinase 1B (Homo sapiens, UniProt Q9Y463); assay: Binding affinity to DYRK1B (unknown origin) assessed as dissociation constant by competitive binding assay
[2] = target: T1, Signal transducer and activator of transcription 1-alpha/beta (Homo sapiens) (UniProt P42224); assay: Inhibition of STAT1 phosphorylation at S727 residue in human MV4-11 cells incubated for 24 hrs by Western blot analysis; assay type: cell-based; settings: dose 0.001-1 µM
T1 sequence (whole entry): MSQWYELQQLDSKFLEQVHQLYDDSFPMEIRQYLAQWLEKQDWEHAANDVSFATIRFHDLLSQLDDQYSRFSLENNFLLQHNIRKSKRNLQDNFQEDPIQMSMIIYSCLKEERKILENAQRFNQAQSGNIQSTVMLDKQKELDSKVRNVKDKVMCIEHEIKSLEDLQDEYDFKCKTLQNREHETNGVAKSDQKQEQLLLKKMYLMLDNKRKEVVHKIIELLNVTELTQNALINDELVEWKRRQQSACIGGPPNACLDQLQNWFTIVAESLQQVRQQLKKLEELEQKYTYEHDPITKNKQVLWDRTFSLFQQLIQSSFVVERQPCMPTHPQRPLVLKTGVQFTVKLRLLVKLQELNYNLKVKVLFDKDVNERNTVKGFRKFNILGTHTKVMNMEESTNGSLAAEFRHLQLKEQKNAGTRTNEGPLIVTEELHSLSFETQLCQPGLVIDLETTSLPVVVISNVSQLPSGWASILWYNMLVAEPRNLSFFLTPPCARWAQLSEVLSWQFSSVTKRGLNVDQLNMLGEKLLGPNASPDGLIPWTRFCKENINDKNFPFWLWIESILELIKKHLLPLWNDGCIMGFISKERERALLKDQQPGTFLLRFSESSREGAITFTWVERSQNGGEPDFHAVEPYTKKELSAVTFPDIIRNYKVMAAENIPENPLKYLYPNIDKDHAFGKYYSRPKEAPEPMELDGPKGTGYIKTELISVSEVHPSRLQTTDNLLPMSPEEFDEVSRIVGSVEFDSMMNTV

[3] = Metabolic stability in mouse liver microsomes assessed as intrinsic clearance at 1 uM preincubated for 10 mins followed by NADPH addition and measured for 60 mins by LC-MS/MS analysis; assay type: ADME, Microsome; settings: read-out: CLH
[4] = target: T2, Serine/threonine-protein kinase LATS2 (Homo sapiens, UniProt Q9NRM7); assay: Binding affinity to LATS2 (unknown origin) assessed as dissociation constant by competitive binding assay
T2 sequence (Q9NRM7 whole entry): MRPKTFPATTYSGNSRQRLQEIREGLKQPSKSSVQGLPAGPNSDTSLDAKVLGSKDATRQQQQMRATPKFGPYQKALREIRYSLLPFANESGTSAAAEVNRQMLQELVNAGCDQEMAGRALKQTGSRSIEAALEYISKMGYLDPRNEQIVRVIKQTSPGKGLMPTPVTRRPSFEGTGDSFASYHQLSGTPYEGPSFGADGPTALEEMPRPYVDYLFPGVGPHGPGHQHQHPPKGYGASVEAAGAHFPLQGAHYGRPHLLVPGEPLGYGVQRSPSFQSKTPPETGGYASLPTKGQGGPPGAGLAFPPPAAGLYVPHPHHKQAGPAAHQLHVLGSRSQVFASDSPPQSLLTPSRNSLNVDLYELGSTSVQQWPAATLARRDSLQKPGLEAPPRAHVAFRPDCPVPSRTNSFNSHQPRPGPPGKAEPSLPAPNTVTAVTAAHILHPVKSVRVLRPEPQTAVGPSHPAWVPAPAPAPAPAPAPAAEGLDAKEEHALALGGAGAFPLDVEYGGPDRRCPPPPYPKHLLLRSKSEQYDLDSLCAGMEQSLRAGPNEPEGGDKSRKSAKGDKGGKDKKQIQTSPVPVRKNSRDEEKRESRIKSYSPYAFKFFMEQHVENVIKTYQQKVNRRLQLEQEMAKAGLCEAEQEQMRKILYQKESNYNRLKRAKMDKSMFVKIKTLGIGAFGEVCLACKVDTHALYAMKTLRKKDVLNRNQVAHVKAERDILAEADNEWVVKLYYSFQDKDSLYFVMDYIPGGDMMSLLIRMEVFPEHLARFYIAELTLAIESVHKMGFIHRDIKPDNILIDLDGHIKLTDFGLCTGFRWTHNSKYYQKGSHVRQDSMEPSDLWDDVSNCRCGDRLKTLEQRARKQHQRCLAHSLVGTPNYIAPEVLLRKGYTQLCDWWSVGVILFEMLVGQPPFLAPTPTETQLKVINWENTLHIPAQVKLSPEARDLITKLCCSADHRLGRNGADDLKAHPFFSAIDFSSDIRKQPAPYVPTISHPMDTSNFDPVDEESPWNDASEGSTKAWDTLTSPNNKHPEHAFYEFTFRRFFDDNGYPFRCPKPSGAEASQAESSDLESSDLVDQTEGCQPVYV

[5] = target: Cytochrome P450 3A4 (Homo sapiens, UniProt P08684); assay: Inhibition of CYP3A4 in human liver microsomes using midazolam as substrate assessed as reduction in substrate hydroxylation incubated for 10 mins in presence of NADPH by LC-MS/MS analysis; assay type: ADME, Microsome
[6] = Cytotoxicity against HEK293 cells; assay type: toxicity, cell-based; settings: human
[7] = test system: Mus musculus; assay: In vivo inhibition of STAT1 phosphorylation at S727 residue in BALB/c nude mouse xenografted with human MV4-11 cells assessed as reduction in p-STAT1 protein level administered orally by gavage twice per day for 17 days and measured 24 hrs post last dose by Western blot analysis; assay type: functional, organism-based; settings: dose 1-10 mg/kg, route po, time 17.0 day
[8] = Volume of distribution in Beagle dog at 1 mg/kg, po or 0.5 mg/kg, iv administered as single dose and measured for 24 hrs by LC-MS/MS analysis; assay type: ADME, organism-based, Canis lupus familiaris; settings: in vivo
[9] = Bioavailability in Sprague-Dawley rat at 5 mg/kg, po or 1 mg/kg, iv administered as single dose and measured for 24 hrs by LC-MS/MS analysis; assay type: ADME, organism-based; settings: in vivo
[10] = target: Voltage-gated inwardly rectifying potassium channel KCNH2 (Homo sapiens, UniProt Q12809); assay: Inhibition of hERG expressed in CHO cells at -80 mV holding potential by whole cell patch clamp recording assay; assay type: toxicity, cell-based
[11] = Metabolic stability in human liver microsomes assessed as intrinsic clearance at 1 uM preincubated for 10 mins followed by NADPH addition and measured for 60 mins by LC-MS/MS analysis; assay type: ADME, Microsome; settings: read-out: CLH
[12] = test system: MV4-11; assay: Antitumor activity against human MV4-11 cells xenografted in BALB/c nude mouse assessed as inhibition of tumor growth administered orally by gavage twice per day for 17 days and measured 3 times per week by caliper method; assay type: functional, cell-based; settings: dose 1-10 mg/kg, route po, time 17.0 day
[13] = target: Phosphatidylinositol 3-kinase catalytic subunit type 3 (Homo sapiens, UniProt Q8NEB9); assay: Binding affinity to VPS34 (unknown origin) assessed as dissociation constant by competitive binding assay
Chain of Phosphatidylinositol 3-kinase catalytic subunit type 3 (Q8NEB9 whole entry): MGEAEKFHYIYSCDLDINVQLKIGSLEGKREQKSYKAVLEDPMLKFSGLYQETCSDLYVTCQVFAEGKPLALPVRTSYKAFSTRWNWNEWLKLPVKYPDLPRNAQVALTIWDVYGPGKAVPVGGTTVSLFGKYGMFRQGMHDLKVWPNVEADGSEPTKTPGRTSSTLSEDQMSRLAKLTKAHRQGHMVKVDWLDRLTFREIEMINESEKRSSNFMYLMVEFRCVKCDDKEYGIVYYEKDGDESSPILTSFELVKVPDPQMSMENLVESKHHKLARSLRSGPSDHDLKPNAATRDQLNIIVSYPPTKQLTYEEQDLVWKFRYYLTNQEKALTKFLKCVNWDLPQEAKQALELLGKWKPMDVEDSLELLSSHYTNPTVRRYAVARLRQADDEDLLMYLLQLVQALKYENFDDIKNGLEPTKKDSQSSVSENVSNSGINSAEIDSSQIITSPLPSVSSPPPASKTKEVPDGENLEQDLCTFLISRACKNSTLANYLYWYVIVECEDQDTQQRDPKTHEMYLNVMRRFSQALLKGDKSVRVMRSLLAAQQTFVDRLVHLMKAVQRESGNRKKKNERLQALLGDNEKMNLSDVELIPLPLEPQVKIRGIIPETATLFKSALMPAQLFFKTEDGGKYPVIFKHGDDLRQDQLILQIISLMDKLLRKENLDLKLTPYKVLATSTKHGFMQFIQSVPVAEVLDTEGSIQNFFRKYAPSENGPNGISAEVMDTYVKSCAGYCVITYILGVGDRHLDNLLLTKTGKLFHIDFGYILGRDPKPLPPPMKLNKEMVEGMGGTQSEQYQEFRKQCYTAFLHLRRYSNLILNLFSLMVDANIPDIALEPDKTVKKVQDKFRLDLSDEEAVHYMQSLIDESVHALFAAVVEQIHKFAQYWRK

Chain of Voltage-gated inwardly rectifying potassium channel KCNH2 (Q12809 whole entry): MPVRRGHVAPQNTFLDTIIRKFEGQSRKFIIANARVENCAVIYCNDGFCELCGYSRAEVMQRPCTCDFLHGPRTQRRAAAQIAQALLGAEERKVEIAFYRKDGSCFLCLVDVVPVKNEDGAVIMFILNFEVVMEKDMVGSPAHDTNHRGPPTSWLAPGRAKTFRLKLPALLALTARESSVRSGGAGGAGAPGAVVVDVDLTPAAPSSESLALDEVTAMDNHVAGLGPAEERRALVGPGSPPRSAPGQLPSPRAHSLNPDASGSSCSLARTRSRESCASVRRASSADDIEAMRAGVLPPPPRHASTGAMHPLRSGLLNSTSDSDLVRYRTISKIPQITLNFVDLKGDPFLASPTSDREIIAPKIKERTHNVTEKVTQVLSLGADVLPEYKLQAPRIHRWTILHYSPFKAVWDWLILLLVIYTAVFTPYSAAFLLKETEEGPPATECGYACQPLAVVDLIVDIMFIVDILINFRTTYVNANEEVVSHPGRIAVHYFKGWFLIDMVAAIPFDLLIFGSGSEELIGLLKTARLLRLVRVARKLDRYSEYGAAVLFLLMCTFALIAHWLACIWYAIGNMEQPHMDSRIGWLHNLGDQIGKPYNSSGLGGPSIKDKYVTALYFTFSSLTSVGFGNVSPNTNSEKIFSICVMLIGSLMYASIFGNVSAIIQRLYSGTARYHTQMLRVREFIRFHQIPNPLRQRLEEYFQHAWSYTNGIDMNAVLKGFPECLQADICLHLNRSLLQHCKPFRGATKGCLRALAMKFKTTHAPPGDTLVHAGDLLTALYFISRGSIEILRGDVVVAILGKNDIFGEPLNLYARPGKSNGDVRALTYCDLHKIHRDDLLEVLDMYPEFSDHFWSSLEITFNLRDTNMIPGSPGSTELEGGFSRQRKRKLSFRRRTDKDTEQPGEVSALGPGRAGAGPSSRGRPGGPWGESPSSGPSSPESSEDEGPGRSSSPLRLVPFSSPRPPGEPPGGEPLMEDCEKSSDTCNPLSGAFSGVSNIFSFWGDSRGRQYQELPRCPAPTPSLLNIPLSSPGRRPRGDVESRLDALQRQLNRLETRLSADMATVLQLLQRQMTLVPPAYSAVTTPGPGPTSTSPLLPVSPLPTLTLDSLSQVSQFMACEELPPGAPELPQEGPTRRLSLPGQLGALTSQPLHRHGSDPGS
Chain of Cytochrome P450 3A4 (P08684 whole entry): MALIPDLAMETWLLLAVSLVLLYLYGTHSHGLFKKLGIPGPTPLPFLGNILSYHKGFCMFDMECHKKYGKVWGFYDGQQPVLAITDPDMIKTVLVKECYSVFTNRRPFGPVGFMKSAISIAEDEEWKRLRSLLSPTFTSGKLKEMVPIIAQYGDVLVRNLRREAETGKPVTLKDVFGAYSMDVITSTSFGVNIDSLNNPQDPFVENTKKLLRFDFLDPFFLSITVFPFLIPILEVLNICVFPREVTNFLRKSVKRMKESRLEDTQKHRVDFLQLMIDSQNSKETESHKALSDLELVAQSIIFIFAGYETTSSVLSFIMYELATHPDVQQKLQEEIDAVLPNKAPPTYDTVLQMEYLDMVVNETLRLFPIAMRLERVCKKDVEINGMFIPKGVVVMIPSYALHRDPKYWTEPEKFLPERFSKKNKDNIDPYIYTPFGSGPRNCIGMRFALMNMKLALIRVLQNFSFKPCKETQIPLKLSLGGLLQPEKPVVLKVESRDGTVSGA
Chain of Dual specificity tyrosine-phosphorylation-regulated kinase 1B (Q9Y463 whole entry): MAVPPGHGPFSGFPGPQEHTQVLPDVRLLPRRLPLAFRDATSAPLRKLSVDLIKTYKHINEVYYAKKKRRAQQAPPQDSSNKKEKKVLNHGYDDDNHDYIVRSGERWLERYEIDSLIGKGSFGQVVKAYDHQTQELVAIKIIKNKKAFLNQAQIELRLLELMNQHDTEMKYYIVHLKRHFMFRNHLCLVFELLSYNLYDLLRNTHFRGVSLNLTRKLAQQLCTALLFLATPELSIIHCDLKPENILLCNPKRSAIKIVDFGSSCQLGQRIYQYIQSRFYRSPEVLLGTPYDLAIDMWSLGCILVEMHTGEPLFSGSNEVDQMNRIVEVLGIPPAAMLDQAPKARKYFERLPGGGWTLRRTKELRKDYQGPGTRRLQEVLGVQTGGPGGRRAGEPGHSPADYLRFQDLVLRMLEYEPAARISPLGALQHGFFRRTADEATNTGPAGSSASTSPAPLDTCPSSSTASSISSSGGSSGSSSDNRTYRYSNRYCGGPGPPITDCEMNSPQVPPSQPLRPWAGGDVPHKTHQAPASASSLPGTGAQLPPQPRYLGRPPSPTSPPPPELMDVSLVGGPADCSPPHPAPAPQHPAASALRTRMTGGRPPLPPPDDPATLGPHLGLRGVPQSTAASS

pKd [1]: 5.57
inhibition [2]: Dose-Dependent Effect
CLint scaled at 1 µM [3]: 148 mL/min/kg
pKd [4]: 6.60
pIC50 [5]: < 4.30
Vd [8]: 0.5 L/kg
bioavailability [9]: 97.7%
CLint scaled at 1 µM [11]: < 8.6 mL/min/kg
pKd [13]: 5.38
Compound: Cc1n[nH]c2ccc(-c3nnc(C)n3Cc3ccc(C(F)(F)F)cc3)cc12
pEC50 [6]: < 5.00
inhibition [7]: Dose-Dependent Effect
pIC50 [10]: < 4.52
inhibition [12]: Dose-Dependent Effect
